According to patent publication US12569482B2, “Methods and compositions for treating idiopathic pulmonary fibrosis” (priority 2018, dated 2026):
“Also recorded” adds a separate entry of the source. Like-named read-outs stand apart in the source and are kept apart here.

How the values were obtained:
[1] = test system: sol elastase activity of CF sputum; conditions: unprocessed CF sputum directly treated; cited from earlier work
[2] = Plasma drug levels, Example 2; format: in vivo, C57BL/6 mice; conditions: C57BL/6, mouse
Experimental: On Day 5, the mice with bleomycin treatment were divided into four groups at random (referred to as Group 2-5, n=10), and orally administered with vehicle (DMSO: PEG400=1:9, V/V), itraconazole (Kangmanlin Co. Ltd. prepared in DMSO/PEG400 with a final concentration of 1.5 mg/mL), nintedanib (Kangmanlin Co. Ltd., prepared in DMSO/PEG400 with a final concentration of 6.0 mg/mL), and itraconazole+nintedanib (prepared in DMSO/PEG400 with final concentrations of 1.5 mg/mL and 6.0 mg/mL) at daily doses of 10 mL/kg, 15 mg/kg, 60 mg/kg and 15+60 mg/kg, respectively. The mice in the Control group was administered with vehicle (DMSO/PEG400) at a daily dose of 10 mL/kg. Mice body weights were measured and recorded on Day 1, 5, 12, 19 and 21.
Two hours post drug administration on Day 21, all animals were anaesthetized with pentobarbital (i.p., 60 mg/kg). Blood sample, bronchoalveolar lavage fluid (BALF) and lung lobes were collected from each mouse and then processed following the protocols in Example 1.

[3] = Drug concentrations in plasma and lung tissues after 5 days of oral or inhalation dosing; format: in vivo, healthy male mice; conditions: male, mouse; for Kp at 2 h: lung tissue and plasma, read-out: levels in lung tissues relative to plasma; for concentration at 2 h: q.d., 5 days, two hours after last dose
Experimental: In a separate experiment, three groups of healthy male mice were treated with itraconazole for 5 consecutive days. Animals in Group A were orally administered with itraconazole in DMSO:PEG400 (1:9, v/v) at a daily dose of 15 mg/kg, while mice in Group B and C were subject to 3-min inhalation treatment of itraconazole of 15 mg/mL and 50 mg/mL, respectively. Two hours after the last dose, plasma samples and lung tissues were collected as described above. These samples were sent to an independent bioanalytical service lab to determine the levels of itraconazole, and results were summarized in Table 3.

[4] = Plasma exposure levels in the bleomycin-induced lung fibrosis mouse study; format: in vivo
Description: Because the relevancy to human efficacy in bleomycin-induced lung fibrosis mouse model, though well established in preclinical studies (Moeller, 2008), has not been established, a new version of the bleomycin-induced lung fibrosis mouse study protocol was designed, with marketed anti-fibrotic drugs, namely pirfenidone and nintedanib, as positive controls.

[5] = cited from earlier work
[6] = cited from earlier work; remark: listed apart in the source
[7] = mice, cited from earlier work
[8] = test system: bleomycin-induced lung fibrosis; assay: Bleomycin induced IPF mouse model, Example 1 (oral nintedanib or fluconazole); format: in vivo, C57BL/6 mice; conditions: nintedanib 60 mg/kg
Experimental: Forty male C57BL/6 mice (Nanjing Biomedical Research Institute of Nanjing University) were randomly divided into two groups on Day 1, 10 animals for one group (referred to as Control group or Group 1) and 30 for the other. The animals in the Control group were administered intratracheally with PBS at a dose of 2 mL/kg while the others were administered intratracheally with bleomycin (Cat #HY-17565, MCE) at a dose of 0.66 mg/kg.
(§1) On Day 5, the mice with bleomycin treatment were divided into three groups at random (referred to as Group 2-4, n=10), and orally administered with vehicle (0.5% Methyl cellulose), nintedanib (Kangmanlin Co. Ltd., prepared in 0.5% Methyl cellulose with a final concentration of 6.0 mg/mL) and fluconazole (Kangmanlin Co. Ltd., prepared in 0.5% Methyl cellulose with a final concentration of 7.0 mg/mL) at daily doses of 10 mL/kg, 60 mg/kg and 70 mg/kg, respectively. The mice in the Control group was administered with vehicle (0.5% Methyl cellulose) at a daily dose of 10 mL/kg. Mice body weights were measured and recorded on Day 1, 5, 12, 19 and 25.
(§2) Two hours post drug administration on Day 25, all animals were anaesthetized with pentobarbital (i.p., 65 mg/kg). Blood samples were collected from orbital vein, put in tubes pre-coated with EDTA-K2 (KANG JIAN, Cat #KJ202), centrifuged at 4000×g for 10 minutes at 4° C. and then stored at −80° C. for determination of plasma drug levels. Then, the trachea was exposed, and bronchoalveolar lavage fluid (BALF) was collected from each mouse by injecting 0.3 mL of saline into trachea close to the larynx for three times. After BALF collection, mice were perfused with saline, and all four lung lobes were collected from each mouse, fixed in 10% NBF solution, embedded in paraffin and cut into 5 μm-thick sections. The sections were de-paraffinized with xylene and ethanol and subject to Haematoxylin-Eosin, Masson Trichrome and α-SMA IHC staining.
The bronchoalveolar lavage fluid of 20 μL was mixed with 20 μL of trypan blue to determine the cell number. Then, the cells in the BALF were concentrated using a Cytospinat at 1,000 rpm for 5 minutes, smeared on slides and then stained with Diff-Quik stain. Cell types (alveolar macrophages, neutrophils, or lymphocytes) were determined by counting at least 200 cells using a standard hemocytometer. The rest BALFs were centrifuged and supernatants were collected and stored at −80° C. for soluble collagen analysis.
The Haematoxylin-Eosin staining was used to identify and quantitate the inflammatory cells in the tissues, and the total inflammation area was calculated using the AperioScanScope software.
The sections with Masson Trichrome staining were scored for pulmonary fibrosis according to the modified Ashcroft fibrosis rating criteria in Table 1 below. Each lung lobe was divided into 4 parts according to the distance from the main bronchus, i.e., the upper, upper middle, lower middle and lower parts, which were scored separately and averaged later.
α-SMA is a well characterized marker in fibrosis. Immunohistochemistry staining of α-SMA is often used to characterize and quantitate the tissue fibrosis. Increased staining of α-SMA often reflects accumulation of collagen-producing myofibroblasts. Before α-SMA IHC staining, the de-paraffinized sections were treated with citrate antigen retrieval solution (0.01 N citrate buffer, pH 6.0) at 100° C. for 10 minutes, and then incubated with rabbit polyclonal anti-α-SMA (1:400, ab5694, Abcam) for 1 hour followed by goat anti-rabbit HRP (K4003, Dako). DAB substrate kit (DAB0031, Maixin, Shanghai) was used for chromogenic staining. All sections were further counter-stained with hematoxylin. […] α-SMA staining areas were calculated using the AperioImageScope program.
Statistical analysis was performed using student's T-test, one-way or two-way ANOVA followed by post-hoc Dunnett's test if significant. […] The difference was considered significant when p<0.05. *p<0.05, **p<0.01, ***[…].

[9] = set-up: species or system C57BL/6 mice; conditions: C57BL/6, mouse, in vivo, 2 h
Experimental: as §1
as §2, with “The sections were de-paraffinized with xylene and ethanol and subject to Haematoxylin-Eosin, Masson Trichrome and α-SMA IHC staining.” left out

## DNase
[1]
  increase of sol elastase activity: 190%

## CCC(C)n1ncn(-c2ccc(N3CCN(c4ccc(OCC5COC(Cn6cncn6)(c6ccc(Cl)cc6Cl)O5)cc4)CC3)cc2)c1=O (centres unmarked) [itraconazole]
[2]; oral, Day 21, itraconazole 15 mg/kg, nintedanib 60 mg/kg p.o. daily, read-out: two-hour post dosing plasma level, single agent
  concentration at 2 h: 700 ng/mL
[2]; po, Day 21, 15+60 mg/kg p.o. daily, read-out: two-hour post dosing plasma drug level, itraconazole and nintedanib combined in administration
  concentration at 2 h: 518 ng/mL
[3]; inhaled, 5 days of inhalation at 15 mg/mL for 3 min
  Kp at 2 h: ~7.3
[3]; inhaled, inhalation dose of 50 mg/mL for 3 min
  Kp at 2 h: 8.3
[3]; 5 days of oral dosing at 15 mg/kg
  Kp at 2 h: ~1.3
[3]; lung tissue, inhaled, Group B: i.h., 15 mg/mL for 3 min, read-out: Lung Tissue Concentrations
  concentration at 2 h: 590 ng/mL
[3]; lung tissue, inhaled, Group C: i.h., 50 mg/mL for 3 min, read-out: Lung Tissue Concentrations
  concentration at 2 h: 1400 ng/mL
[3]; lung tissue, po, Group A: p.o., 15 mg/kg, read-out: Lung Tissue Concentrations
  concentration at 2 h: 172 ng/mL
[3]; plasma, inhaled, Group B: i.h., 15 mg/mL for 3 min, read-out: Plasma Concentrations
  concentration at 2 h: 80.9 ng/mL
[3]; plasma, inhaled, Group C: i.h., 50 mg/mL for 3 min, read-out: Plasma Concentrations
  concentration at 2 h: 168 ng/mL
[3]; plasma, po, Group A: p.o., 15 mg/kg, read-out: Plasma Concentrations
  concentration at 2 h: 133 ng/mL
[4]; itraconazole alone at 7.5 mg/kg
  plasma exposure level: 394 ± 66 ng/mL
[4]; itraconazole alone at 15 mg/kg
  plasma exposure level: 899 ± 192 ng/mL
[5]; in 0.1N HCl
  solubility: 4 to 6 µg/mL
[5]; in water
  solubility: 0.001 to 0.004 µg/mL
[6]; 200 mg (PO/BID)
  Cmax at steady state: 2000 ng/mL
[6]; 200 mg (PO/QD)
  Cmax at steady state: 1100 ng/mL
[6]; post oral administration, multiple dosing
  time to steady state plasma levels: around 15 days
[6]; post oral dose
  time at which peak plasma levels are reached: 2 to 5 h
[7]; aerosolized dose
  serum levels relative to pulmonary concentrations: 25 to 50 times lower
[7]; after completion of nebulization
  time to effective anti-fungal pulmonary concentrations: ≤ 60 min

## OC(Cn1cncn1)(Cn1cncn1)c1ccc(F)cc1F [fluconazole]
[8]; Haematoxylin-Eosin staining, fluconazole 70 mg/kg p.o. daily
  reduction of lung inflammation area: not observed
[8]; Masson Trichrome staining, fluconazole 70 mg/kg p.o. daily
  reduction of modified Ashcroft score: not observed
[8]; fluconazole 70 mg/kg daily dose
  anti-IPF activities / fibrosis related endpoint measurements (overall): did not show detectable changes; also recorded: failed to show any significant anti-IPF activities
[8]; oral daily Day 5-25, fluconazole 70 mg/kg, vs bleomycin + vehicle
  BALF collagen levels: No collagen level reduction
[8]; α-SMA IHC, fluconazole 70 mg/kg p.o. daily
  reduction of α-SMA staining area: not observed
[9]
  plasma level relative to that of itraconazole at 15 mg/kg: over 62 fold

B1: reduced rhTrx: stable reduced form of recombinant human thioredoxin (protein, UniProt P10599 2-105, looked up)
Thioredoxin: VKQIESKTAFQEALDAAGDKLVVVDFSATWCGPCKMIKPFFHSLSEKYSNVIFLEVDVDDCQDVASECEVKCMPTFQFFKKGQKVGEFSGANKEKLEATINELV
modifications: reduced form
[1]
  increase of sol elastase activity: 60%
